EC50 and IC50 data for 27 compounds are collected here from patent US7265152B2 (ViroPharma Incorporated, priority 2002, dated 2007).

Experiment [1] relates to HCV replicon (BB7 sequence) in Huh-7-Clone A cells. The experiment in a line: HCV replicon assay: ELISA of NS5A protein in replicon-containing cells (Inhibition of Viral RNA Replication). The experiment is classed as cell-based. The note with it: read-out: Replicon. A digest of the protocol:
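Huh-7-Clone A cells carrying subgenomic BB7 HCV replicon (G418-selectable) incubated 72 h with compound. NS5A protein quantified by cell ELISA: glutaraldehyde fixation, anti-NS5A monoclonal plus HRP secondary, TMB read at OD 650 nm. EC50 derived from 8-point serial dilution dose curve.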

The next experiment deals with T1, HCV NS5B (Hepatitis C virus genotype 1b, UniProt Q9WMX2).
T1 construct: fusion protein, of which the carboxyl terminal 21 amino acids were removed to enhance its solubility; His tag (GSHHHHHH); made in house; host or cells: E. coli
The experiment in a line: Inhibition of viral RNA-dependent RNA polymerase (RdRp), in vitro biochemical assay. The note with it: read-out: HCV pol-BB7 IC50. Also on record: species or system HCV genotype 1b virus (BB7). A digest of the protocol:
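Purified recombinant NS5B from a genotype 1b consensus (BB7), His-tagged, E. coli-expressed, with the C-terminal 21 residues deleted. Inhibition of RdRp activity in vitro was measured, and IC50 is the concentration giving 50% inhibition.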

Where [2] appears, read: Hepatitis C virus, Huh-7-Clone A, NS5A ELISA, 72-hour incubation, ranges of EC50.
Setting [3] is: purified His-tagged NS5B (BB7), carboxyl terminal 21 amino acids removed.
Setting [4] is: Hepatitis C virus, ranges of EC50 in HCV replicon assay.
The mark [5] stands for this setting: Hepatitis C virus, HCV replicon, range of EC50.
Where [6] appears, read: HCV NS5B RdRp, BB7, reported as range class.
Where [7] appears, read: Hepatitis C virus, HCV replicon assay, ranges of EC50.
The mark [8] stands for this setting: HCV NS5B RdRp, BB7, class symbols A-D.
[9] abbreviates: HCV NS5B RdRp, BB7, activity class.
[10] abbreviates: Hepatitis C virus, HCV replicon assay, ranges of 50% effective concentration (EC50).
Where [11] appears, read: HCV NS5B polymerase, BB7 (genotype 1b), values given as range classes A-D.

Where two headings read alike, the source gives them in different places.

As to `CNC(=O)c1c(-c2ccc(F)cc2)oc2cc(N(Cc3ccc(OC)cc3)S(C)(=O)=O)c(OCc3ccc(OC)cc3)cc12` [Example 31, 2-(4-Fluoro-phenyl)-6-[methanesulfonyl-(4-methoxy-benzyl)-amino]-5-(4-methoxy-benzyloxy)-benzofuran-3-carboxylic acid methylamide], the EC50 in experiment [1] (setting [2]) was below 1000 nM. In addition, the concentration for half-maximal inhibition (IC50) (in general, the midpoint of a concentration-inhibition curve) on HCV NS5B (setting [3]) was at most 500 nM.
Regarding `CNC(=O)c1c(-c2ccc(F)cc2)oc2cc(N(CCO)S(C)(=O)=O)c(C3CC3)cc12` [Example 43, 5-Cyclopropyl-2-(4-fluoro-phenyl)-6-[(2-hydroxy-ethyl)-methanesulfonyl-amino]-benzofuran-3-carboxylic acid methylamide], the EC50 in experiment [1] (setting [2]) was below 1000 nM. For the same compound, the IC50 on HCV NS5B (setting [3]) is at most 500 nM.
Regarding `CNC(=O)c1c(-c2ccccc2)oc2ccc(COC)cc12` [Example 78, 5-Methoxymethyl-2-phenyl-benzofuran-3-carboxylic acid methylamide], the EC50 in experiment [1] (setting [2]) is below 30000 nM. Further, the IC50 on HCV NS5B (setting [3]) lay in the range of 500 to 5000 nM.
Take `CNC(=O)c1c(-c2ccc(F)cc2)oc2cc(Nc3ccncc3)c(OC(C)C)cc12` [Example 131, 2-(4-Fluoro-phenyl)-5-isopropoxy-6-(pyridin-4-ylamino)-benzofuran-3-carboxylic acid methylamide]: the EC50 in experiment [1] (setting [4]) was below 30000 nM. Besides, the concentration for half-maximal inhibition (IC50) on HCV NS5B (HCV NS5B RdRp, BB7 genotype 1b) lay in the range of 500 to 5000 nM.
With `CNC(=O)c1c(-c2ccccc2)oc2ccc(C(C)C)cc12` [Example 86, 5-Isopropyl-2-phenyl-benzofuran-3-carboxylic acid methylamide], the EC50 in experiment [1] (setting [2]) is below 10000 nM. Also, the 50% inhibitory concentration (IC50) at HCV NS5B (setting [3]) is at most 500 nM.
Regarding `CNC(=O)c1c(-c2ccc(F)cc2)oc2cc(NCC3CC3)c(OC(C)C)cc12` [Example 115, 6-(Cyclopropylmethyl-amino)-2-(4-fluoro-phenyl)-5-isopropoxy-benzofuran-3-carboxylic acid methylamide], in experiment [1] (setting [4]), the EC50 is below 1000 nM. For the same compound, on HCV NS5B (HCV NS5B RdRp, BB7 genotype 1b), the IC50 was at most 500 nM.
Consider `CNC(=O)c1c(-c2ccc(F)cc2)oc2cc(N3CCOCC3)c(OCCOC)cc12` [Example 226, 2-(4-Fluoro-phenyl)-5-(2-methoxy-ethoxy)-6-morpholin-4-yl-benzofuran-3-carboxylic acid methylamide], for which the EC50 in experiment [1] (setting [5]) is below 1000 nM. For the same compound, the concentration for half-maximal inhibition (IC50) on HCV NS5B (setting [6]) was at most 500 nM.
With `CNC(=O)c1c(-c2ccc(F)cc2)oc2cc(N(CC(C)=O)S(C)(=O)=O)c(OC(C)C)cc12` [Example 34, 2-(4-Fluoro-phenyl)-5-isopropoxy-6-[methanesulfonyl-(2-oxo-propyl)-amino]-benzofuran-3-carboxylic acid methylamide], the EC50 in experiment [1] (setting [2]) is below 1000 nM. Also, on HCV NS5B (setting [3]), the IC50 is at most 500 nM.
Take `CNC(=O)c1c(-c2ccc(F)cc2)oc2cc(N3CC(C)OC(C)C3)c(OC(C)C)cc12` (stereo not drawn) [Example 138, 6-(2,6-Dimethyl-morpholin-4-yl)-2-(4-fluoro-phenyl)-5-isopropoxy-benzofuran-3-carboxylic acid methylamide]: in experiment [1] (setting [4]), the EC50 is below 10000 nM. The IC50 at HCV NS5B (HCV NS5B RdRp, BB7 genotype 1b) fell in the range of 500 to 5000 nM.
As for `CNC(=O)c1c(-c2ccc(F)cc2)oc2cc(-c3cc(CO)on3)c(OC(C)C)cc12` [Example 37, 2-(4-Fluoro-phenyl)-6-(5-hydroxymethyl-isoxazol-3-yl)-5-isopropoxy-benzofuran-3-carboxylic acid methylamide], in experiment [1] (setting [2]), the EC50 is below 1000 nM. Also, on HCV NS5B (setting [3]), the IC50 was at most 500 nM.
For the compound `CNC(=O)c1c(-c2ccc(F)cc2)oc2cc(-c3c(C)n[nH]c3C)c(OC)cc12` [Example 256, 6-(3,5-Diinethyl-1H-pyrazol-4-yl)-2-(4-fluoro-phenyl)-5-methoxy-benzofuran-3-carboxylic acid methylamide], the EC50 in experiment [1] (setting [7]) is below 1000 nM. Also, at HCV NS5B (setting [8]), the IC50 was at most 500 nM.
Turning to `CCc1cc2c(C(=O)NC)c(-c3ccc(F)cc3)oc2cc1N(CCF)S(C)(=O)=O` [Example 337, 5-Ethyl-6-[(2-fluoro-ethyl)-methanesulfonyl-amino]-2-(4-fluoro-phenyl)-benzofuran-3-carboxylic acid methylamide], in experiment [1] (setting [7]), the EC50 was below 1000 nM. Moreover, the IC50 on HCV NS5B (setting [9]) was at most 500 nM.
Consider `CCOc1cc2c(C(=O)NC)c(-c3ccc(F)cc3)oc2cc1N(CC)CC` [Example 423, 6-Diethylamino-5-ethoxy-2-(4-fluoro-phenyl)-benzofuran-3-carboxylic acid methylamide], for which, in experiment [1] (setting [10]), the EC50 is below 1000 nM. For the same compound, the concentration for half-maximal inhibition (IC50) on HCV NS5B (setting [11]) was at most 500 nM.
Consider `CNC(=O)c1c(-c2ccc(F)cc2)oc2cc(NS(C)(=O)=O)c(F)cc12` [Example 332, 5-Fluoro-2-(4-fluoro-phenyl)-6-methanesulfonylamino-benzofuran-3-carboxylic acid methylamide], for which the EC50 in experiment [1] (setting [7]) was below 10000 nM. The 50% inhibitory concentration (IC50) on HCV NS5B (setting [9]) lay in the range of 500 to 5000 nM.
Take `CNC(=O)c1c(-c2ccc(F)cc2)oc2cc(N(C)S(C)(=O)=O)c(OC)cc12` [Example 29, 2-(4-Fluoro-phenyl)-6-(methanesulfonyl-methyl-amino)-5-methoxy-benzofuran-3-carboxylic acid methylamide]: in experiment [1] (setting [2]), the EC50 was below 1000 nM. The half-maximal inhibitory concentration (IC50) on HCV NS5B (setting [3]) is at most 500 nM.
For the compound `CNC(=O)c1c(-c2ccc(F)cc2)oc2ccc(OC(C)C)cc12` [Example 65, 2-(4-Fluoro-phenyl)-5-isopropoxy-benzofuran-3-carboxylic acid methylamide], the EC50 in experiment [1] (setting [2]) is below 30000 nM. In addition, the half-inhibitory concentration (IC50) at HCV NS5B (setting [3]) is 500 to 5000 nM.
Take `CNC(=O)c1c(-c2ccc(F)cc2)oc2cc(N(C)CCOC)c(OC(C)C)cc12` [Example 119, 2-(4-Fluoro-phenyl)-5-isopropoxy-6-[(2-methoxy-ethyl)-methyl-amino]-benzofuran-3-carboxylic acid methylamide]: the EC50 in experiment [1] (setting [4]) is below 1000 nM. Further, the concentration for half-maximal inhibition (IC50) at HCV NS5B (HCV NS5B RdRp, BB7 genotype 1b) was at most 500 nM.
Take `CNC(=O)c1c(-c2ccc(F)cc2)oc2cc(NC(C)=O)c(OC(C)C)cc12` [Example 98, 6-Acetylamino-2-(4-fluoro-phenyl)-5-isopropoxy-benzofuran-3-carboxylic acid methylamide]: in experiment [1] (setting [4]), the EC50 was below 10000 nM. Moreover, the IC50 on HCV NS5B (HCV NS5B RdRp, BB7 genotype 1b) is at most 500 nM.
With `CNC(=O)c1c(-c2ccc(F)cc2)oc2cc(-c3cccc(S(C)(=O)=O)c3)c(OC(C)C)cc12` [Example 178, 2-(4-Fluoro-phenyl)-5-isopropoxy-6-(3-methanesulfonyl-phenyl)-benzofuran-3-carboxylic acid methylamide], in experiment [1] (setting [5]), the EC50 was below 10000 nM. Moreover, at HCV NS5B (setting [6]), the 50% inhibitory concentration (IC50) is at most 500 nM.
Consider `CNC(=O)c1c(-c2ccc(F)cc2)oc2cc(N(C)S(C)(=O)=O)c(OCc3ccc(C#N)cc3)cc12` [Example 357, 5-(4-Cyano-benzyloxy)-2-(4-fluoro-phenyl)-6-(methanesulfonyl-methyl-amino)-benzofuran-3-carboxylic acid methylamide], for which, in experiment [1] (setting [7]), the EC50 is below 1000 nM. Besides, the half-maximal inhibitory concentration (IC50) on HCV NS5B (setting [9]) was at most 500 nM.
As for `CNC(=O)c1c(-c2ccncc2)oc2ccc(OC)cc12` [Example 107, 5-Methoxy-2-pyridin-4-yl-benzofuran-3-carboxylic acid methylamide], the EC50 in experiment [1] (setting [4]) was below 100000 nM. Further, the IC50 on HCV NS5B (HCV NS5B RdRp, BB7 genotype 1b) was in the range of 500 to 5000 nM.
Regarding `CNC(=O)c1c(-c2ccncc2)oc2ccc(OC(C)C)cc12` [Example 27, 5-Isopropoxy-2-pyridin-4-yl-benzofuran-3-carboxylic acid methylamide], in experiment [1] (setting [2]), the EC50 is above 30000 nM. In addition, at HCV NS5B (setting [3]), the IC50 was 5000 to 30000 nM.
As for `CNC(=O)c1c(-c2ccc(F)cc2)oc2cc(N(C)S(C)(=O)=O)c(OCCn3cccn3)cc12` [Example 404, 2-(4-Fluoro-phenyl)-6-(methanesulfonyl-methyl-amino)-5-(2-pyrazol-1-yl-ethoxy)-benzofuran-3-carboxylic acid methylamide], the EC50 in experiment [1] (setting [10]) was below 1000 nM. Moreover, the IC50 on HCV NS5B (setting [11]) was at most 500 nM.
Regarding `CNC(=O)c1c(-c2ccc(F)cc2)oc2cc(-c3cc(C4CC4)on3)c(OC(C)C)cc12` [Example 274, 6-(5-Cyclopropyl-isoxazol-3-yl)-2-(4-fluoro-phenyl)-5-isopropoxy-benzofuran-3-carboxylic acid methylamide], the EC50 in experiment [1] (setting [7]) is below 1000 nM. In addition, the half-maximal inhibitory concentration (IC50) at HCV NS5B (setting [8]) was at most 500 nM.
As to `CNC(=O)c1c(-c2ccc(F)cc2)oc2cc(N3CCCC3)c(OC)cc12` [Example 116, 2-(4-Fluoro-phenyl)-5-methoxy-6-pyrrolidin-1-yl-benzofuran-3-carboxylic acid methylamide], in experiment [1] (setting [4]), the EC50 was below 1000 nM. Besides, the IC50 on HCV NS5B (HCV NS5B RdRp, BB7 genotype 1b) is at most 500 nM.
Take `CNC(=O)COc1cc2c(C(=O)NC)c(-c3ccc(F)cc3)oc2cc1N(C)S(C)(=O)=O` [Example 421, 2-(4-Fluoro-phenyl)-6-(methanesulfonyl-methyl-amino)-5-methylcarbamoyl-methoxy-benzofuran-3-carboxylic acid methylamide]: the EC50 in experiment [1] (HCV replicon assay, ranges of 50% effective concentration (EC50)) was below 1000 nM. Besides, the half-maximal inhibitory concentration (IC50) at HCV NS5B (setting [11]) is at most 500 nM.
Turning to `CNC(=O)c1c(-c2ccc(F)cc2)oc2cc(N3CCOCC3)c(OCc3c(C)noc3C)cc12` [Example 217, 5-(3,5-Dimethyl-isoxazol-4-ylmethoxy)-2-(4-fluoro-phenyl)-6-morpholin-4-yl-benzofuran-3-carboxylic acid methylamide], the EC50 in experiment [1] (setting [5]) was below 10000 nM. In addition, the concentration for half-maximal inhibition (IC50) at HCV NS5B (setting [6]) was 500 to 5000 nM.
